Patent publication US20030171397A1 (priority 2003, published 2003)
“Also recorded” adds a separate entry of the source. Where two headings read alike, the source gives them in different places. Numbered stars: 1 amine (or outer) side, 2 acyl side, 3 side chain; on linkers, the order of the positions; unused ones are H or OH. Bridge positions count the residues as written; N and C are the ends. Square brackets hold non-standard residues; d marks the D form. Peptide text beside a SMILES is read from it. I, II: the chains in the order shown. Actinocin(9to1) = Cc1c2oc3c(C)ccc(C(=O)[*:1])c3nc-2c(C(=O)[*:2])c(N)c1=O; NMeV = CN[C@H](C(=O)O)C(C)C; Sar = CNCC(=O)O

Legend:
[1] = tested on: tumor cell lines or primary cultures of rat neuronal cells; settings: continued exposure; cited from earlier work
[2] = tested on: MCF-7/Adr^− cells; assay: Cytotoxicity assay, LDH release into culture medium
Procedure: (§1) Human breast tumor cell lines (MCF-7, T47D, SKBr3, and MCF-7/Adr^−) were cultured in DMEM containing 3.7 g/liter Na2HCO3, fetal bovine serum (10%), and insulin (10 mg/liter). For cytotoxicity assays, cells were transferred to DMEM+Ham's nutrient mixture F-12 (without phenol red), with 1.2 g/liter Na2HCO3. Cells were seeded at 100,000 cells/well. Human SK-N-SH neuroblastoma and DU-145 prostate carcinoma cells were cultured in DMEM, supplemented with fetal bovine serum (10%).
(§2) Cell death was assessed by release of lactate dehydrogenase (LDH) into the culture medium using the CytoTox 96 kit from Promega (Madison, Wis.). The method used was as specified by manufacturer with minor modifications. Cells were plated and cultured in 24-well plates for 1 to 2 days prior to the experiment. Cells were treated in the plates under the specified drug conditions. Following treatment, the medium was transferred to centrifuge tubes and centrifuged to remove cell debris. Supernatant (50 μl) was transferred to a 96-well plate, to which was added substrate mix in assay buffer, followed by stop solution after a 30 min incubation. Formation of formazan was monitored at 490 nm in a plate reader. Values are expressed relative to total lysis controls (Triton X-100 was used to determine value for 100% cell kill) and no drug-controls. Doxorubicin and caspase inhibitors (Z-VAD-FMK, Y-VAD-CHO, DEVD-CHO) were obtained from Calbiochem (San Diego, Calif.) and actinomycin-D from Sigma (St. Louis, Mo.).

[3] = up to 100 mg orally every four hours, 30 mg IV and 60 mg IM; cited from earlier work
[4] = tested on: MCF-7 cells
Procedure: as §1, §2

[5] = tested on: sigma-2 receptor; settings: cited from earlier work; for sigma receptor subtype selectivity: sigma-2 vs sigma-1
[6] = tested on: SK-N-SH neuroblastoma cells; settings: cited from earlier work
[7] = tested on: breast tumor cell lines; assay: Cytotoxicity (LDH release) across breast tumor cell lines; type: cell-based, human; settings: for effect of p53 status on cytotoxic potency: mutant p53 (MCF-7/Adr^−, SKBr3, T47D) vs wild-type p53 MCF-7, FIG. 4B; for relative cytotoxic potency: FIG. 3A, 3B, 4B
Procedure: (§3) Cells were seeded at 100,000 cells/well.

[8] = tested on: breast tumor cell lines possessing p53 mutations; settings: Crawford et al., 1999; cited from earlier work
[9] = tested on: T47D cells; type: cell-based, human
Procedure: as §3
(§4) DNA fragmentation occurring during apoptosis can be detected by incorporating fluorescein-12-dUTP at the 3′-OH DNA ends using the enzyme, terminal deoxynucleotidyl transferase (TdT). TUNEL (TdT-mediated dUTP Nick-End Labeling) was performed using the Apoptosis Detection System, Fluorescein Kit (Promega, Madison, Wis.) according to the manufacturer's specification. After treatment with sigma ligands at the concentrations and times specified, cells were fixed with 4% formaldehyde, permeabilized with Triton X-100, and incubated with fluorescein-12-dUTP and terminal deoxynucleotidyl transferase and then with propidium iodide. Propidium iodide stains the DNA in both apoptotic and non-apoptotic cells with orange-red color. Fluorescein produces yellow-green fluorescence, indicating fragmented DNA within the nucleus of apoptotic cells. Filters used: excitation 450-490 nm, barrier 520 nm.

[10] = tested on: SKBr3 cells; assay: Cytotoxicity assay, LDH release into culture medium; type: cell-based, human; settings: various concentrations, FIG. 3A
Procedure: as §3

[11] = tested on: T47D cells; assay: as above; type: cell-based, human; settings: various concentrations, FIG. 3B
Procedure: as §3

[12] = tested on: MCF-7 cells; assay: Detection of apoptosis by the TUNEL method; type: cell-based, human; settings: 100 μM, 48 hours; for TUNEL assay result: FIG. 2
Procedure: as §3, §4

[13] = tested on: MCF-7 cells; assay: Detection of apoptosis by Annexin V binding; type: cell-based, human; settings: drug 100 μM; Z-VAD-FMK or Y-VAD-CHO 50 μM; 48 hours; FIG. 5
Procedure: as §3
The early stages of apoptosis are characterized by translocation of phosphatidyl serine (PS) from the inner surface of the plasma membrane to the outer surface of the membrane. Externalized PS can then be detected using Annexin V, a protein with high affinity for PS. This was carried out using the ApoAlert Annexin V Apoptosis Kit (Clontech, Palo Alto, Calif.) according to the manufacturer's specifications. After incubation with sigma ligands at the concentrations and times specified, live cells (without fixing) were incubated with annexin V-FITC and propidium iodide, and were investigated using fluorescence microscopy. […] Filters used: excitation 450 nm, barrier 535 nm.

[14] = tested on: SKBr3 cell lines; type: cell-based, human
Procedure: as §3, §4

12-methoxyibogamine [ibogaine]
cell morphological changes and cell death [1]: activity

CC(C)=CCN1CCC2(C)c3cc(O)ccc3CC1C2C (racemic) [pentazocine]
potentiation of doxorubicin-induced cytotoxicity ([2]; haloperidol 25 μM or pentazocine 35 μM with various concentrations of doxorubicin, FIG. 8): potentiated the cytotoxicity of doxorubicin; also recorded: potentiated the higher doses of doxorubicin | peak plasma concentrations [3]: about 160 ng/ml | potentiation of doxorubicin-induced cytotoxicity ([4]; combined with doxorubicin in MCF-7 cells): Little or no potentiation

CC(C)=CCN1CCC2(C)c3cc(O)ccc3CC1C2C (single isomer, unassigned; (+)) [(+)-pentazocine]
cell morphological changes and cell death [1]: lack of activity | sigma-2 affinity [5]: binds very weakly

CC(C)=CCN1CCC2(C)c3cc(O)ccc3CC1C2C (single isomer, unassigned; (-)) [(−)-Pentazocine]
sigma-2 affinity [5]: has sigma-2 affinity

CN(C)CCN(C)CCc1ccc(Cl)c(Cl)c1 [BD1047]
antagonist activity in the calcium assay ([6]; pH 7.2): ineffective | antagonist activity in the calcium assay ([6]; pH 8.2): effectively attenuated agonist activity

CN1CCN(CCc2ccc(Cl)c(Cl)c2)CC1 [BD1063]
antagonist activity in the calcium assay ([6]; pH 7.2): ineffective | antagonist activity in the calcium assay ([6]; pH 8.2): effectively attenuated agonist activity

CN1CC[C@]2(c3cccc(O)c3)CC(=O)/C(=C/c3ccccc3)[C@H]1C2 [CB-64D, (+)-1R,5R-E-8-benzylidene-5-(3-hydroxyphenyl)-2-methylmorphan-7-one]
potency relative to CB-184 (fold less potent) ([7]; intact cells): about 10 fold | effect of p53 status on cytotoxic potency [7]: generally not affected by p53 status; also recorded: comparable | induction of apoptosis [8]: induce apoptosis | cell morphological changes and cell death [1]: activity | TUNEL assay result ([9]; 100 μM, 48 hours, FIG. 2): positive results | cytotoxicity (LDH release, percentage of total cell kill) [10]: cytotoxic | cytotoxicity (LDH release, percentage of total cell kill) [11]: cytotoxic | sigma receptor subtype selectivity [5]: sigma-2 subtype-selective | extent of apoptotic changes / apoptotic nuclei (TUNEL) [12]: extensive apoptotic changes | TUNEL assay result [12]: positive results | cells visualized displaying apoptotic nuclei ([12]; in some experiments): up to 100% | effect of caspase inhibitors on drug-induced apoptosis (Annexin V binding) [13]: unaffected by co-treatment with caspase inhibitors

CN1CC[C@]2(c3cccc(O)c3)CC(=O)/C(=C/c3ccc(Cl)c(Cl)c3)[C@H]1C2 [CB-184, (+)-1R,5R-E-8-(3,4-dichlorobenzylidene)-5-(3-hydroxyphenyl)-2-methylmorphan-7-one]
concentration below which toxicity is generally not seen in the LDH assay ([7]; 24 hrs): below 1 μM | relative cytotoxic potency ([7]; intact cells): more potent than CB-64D; also recorded: most potent sigma-2 selective agent in intact cells | relative cytotoxic potency ([7]; intact cells, listed as CB184): greatest potency in all cell lines tested | LDH release compared to controls ([7]; below 1 μM, 48 hrs): mildly increased LDH release | effect of p53 status on cytotoxic potency [7]: generally not affected by p53 status; also recorded: comparable | cytotoxicity of combination with actinomycin D ([2]; CB184 1 μM + actinomycin D 1 μg/ml at 24 hours or 0.1 μg/ml at 48 hours, FIG. 7C, 7D): potentiated | cytotoxicity of combination with doxorubicin ([2]; CB184 1 μM + doxorubicin 10 μM): less pronounced | cytotoxicity of combination with doxorubicin ([4]; CB184 1 μM + doxorubicin 10 μM, 24 and 48 hours, FIG. 7A, 7B): Clear synergistic effects | effect of DEVD-CHO on cytotoxicity (LDH release) ([4]; DEVD-CHO 50 μM, caspase 3 inhibitor, FIG. 6A, 6B): no difference | effect of caspase inhibitors on drug-induced cytotoxicity (LDH release) ([4]; DEVD-CHO or Z-VAD-FMK 50 μM, FIG. 6A-6C): not that induced by CB-184 | cytotoxicity (LDH release, percentage of total cell kill) [10]: cytotoxic | cytotoxicity (LDH release, percentage of total cell kill) [11]: cytotoxic | sigma receptor subtype selectivity [5]: sigma-2 subtype-selective

Cc1c2oc3c(C)ccc(C(=O)N[C@@H]4C(=O)N[C@H](C(C)C)C(=O)N5CCC[C@H]5C(=O)N(C)CC(=O)N(C)[C@@H](C(C)C)C(=O)O[C@@H]4C)c3nc-2c(C(=O)N[C@@H]2C(=O)N[C@H](C(C)C)C(=O)N3CCC[C@H]3C(=O)N(C)CC(=O)N(C)[C@@H](C(C)C)C(=O)O[C@@H]2C)c(N)c1=O [actinomycin D] (I: T[dV]P[Sar][NMeV] / II: T[dV]P[Sar][NMeV]; ester I:1-I:C, II:1-II:C; linker I:N-II:N via Actinocin(9to1))
induction of apoptosis [8]: greatly attenuated | induction of apoptosis [14]: apoptosis was induced | induction of apoptosis [9]: apoptosis was induced

O=P1(N(CCCl)CCCl)NCCCO1 (stereo not shown) [cyclophosphamide]
induction of apoptosis [14]: apoptosis was induced | induction of apoptosis [9]: apoptosis was induced

COc1cccc2c1C(=O)c1c(O)c3c(c(O)c1C2=O)C[C@@](O)(C(=O)CO)C[C@@H]3O[C@H]1C[C@H](N)[C@H](O)[C@H](C)O1 [doxorubicin]
induction of apoptosis [8]: greatly attenuated | LDH release ([4]; various concentrations, FIG. 6C): dose-dependent increase in LDH-release | induction of apoptosis [14]: apoptosis was induced | induction of apoptosis [9]: apoptosis was induced | TUNEL assay result ([9]; 100 μM, 48 hours, FIG. 2): positive results | TUNEL assay result [12]: positive results | effect of caspase inhibitors on drug-induced apoptosis (Annexin V binding) [13]: blocked apoptosis induced by doxorubicin

O=C(CCCN1CCC(O)(c2ccc(Cl)cc2)CC1)c1ccc(F)cc1 [haloperidol]
cell morphological changes and cell death [1]: cell death | TUNEL assay result ([9]; 100 μM, 48 hours, FIG. 2): positive results | sigma receptor subtype selectivity [5]: subtype non-selective | extent of apoptotic changes / apoptotic nuclei (TUNEL) [12]: less extensively than the more potent CB64D | TUNEL assay result [12]: positive results

OC(CCCN1CCC(O)(c2ccc(Cl)cc2)CC1)c1ccc(F)cc1 (stereo not shown) [reduced haloperidol]
cell morphological changes and cell death [1]: cell death | TUNEL assay result [9]: positive results | sigma receptor subtype selectivity [5]: subtype non-selective | extent of apoptotic changes / apoptotic nuclei (TUNEL) [12]: less extensively than the more potent CB64D | TUNEL assay result [12]: positive results
